# Data from patent publication US9045466B2, “Amidine compound or salt thereof” (priority 2011, dated 2015).
# Counter-ions that a name gives are not always drawn.
# Tested on: Trichophyton rubrum NBRC 5467
# Experiment: Fungal susceptibility test, broth microdilution method (MIC)
# Assay type: cell-based
# Settings: NBRC5467, 96 h, RPMI/MOPS pH 7.0, 35° C. for 4 days, visual, lowest concentration with approximately 80% growth inhibition, read-out: MIC (μg/mL) T. rubrum NBRC5467
# Protocol: The fungal susceptibility tests on test substances were conducted by the broth microdilution method equivalent to Clinical and Laboratory Standards Institute method. The medium used in the susceptibility tests was RPMI1640 adjusted to pH 7.0 with 0.165 mol/L morpholinepropanesulfonic acid (MOPS) and 50% sodium hydroxide (RPMI/MOPS). Each test substance was dissolved in DMSO and serially diluted in 2-fold increments with DMSO on a 96-well microplate. Then, the dilutions were dispensed by 1 μL to a 96-well microplate. Candida albicans TIMM 1623 cultured overnight at 35° C. in Sabouraud's agar medium was suspended in sterile saline. The number of cells was counted under a biological microscope, and the fungal suspension was diluted with RPMI/MOPS to prepare the inoculum solution (approximately 1×10^3 cells/mL). Alternatively, Candida albicans TIMM 1623 stored at −80° C. was diluted with RPMI/MOPS to prepare the inoculum solution (approximately 1×10^3 CFU/mL). Aspergillus fumigatus TIMM 0063 stored at 5° C. was diluted with RPMI/MOPS to prepare the inoculum solution (approximately 1×10^4 CFU/mL). Trichophyton rubrum NBRC 5467 stored at 5° C. or −80° C. was diluted with RPMI/MOPS to prepare the inoculum solution (approximately 2×10^3 CFU/mL). The 199 μL of inoculum solution was dispensed to each well to prepare the microplate containing the designated concentrations of test substance, medium and fungal cells. Candida albicans and Aspergillus fumigatus were cultured at 35° C. for 2 days. Trichophyton rubrum was cultured at 35° C. for 4 days. After the completion of culture, MIC was determined by visual observation. The MICs of Candida albicans and Aspergillus fumigatus were set to the lowest concentration at which approximately 50% growth inhibition was seen, when compared with a growth control without the addition of the test substance. The MIC of Trichophyton rubrum was set to the lowest concentration at which approximately 80% growth inhibition was seen, when compared with a growth control without the addition of the test substance.
row,Compound,MIC
1,"COC(=O)CN(C)/C=N/c1cc(C)c(Cc2nc(-c3ccc(C)cc3)cs2)cc1C [Example 7, Methyl N-{(E)-[(2,5-dimethyl-4-{[4-(4-methylphenyl)-1,3-thiazol-2-yl]methyl}phenyl)imino]methyl}-N-methylglycinate]",0.25 µg/mL
2,"CCN(C)/C=N/c1cc(C)c(Cc2nc(C(=O)NC3CCCC3)cs2)cc1C [Example 74, N-Cyclopentyl-2-[4-({(E)-[ethyl(methyl)amino]methylidene}amino)-2,5-dimethylbenzyl]-1,3-thiazole-4-carboxamide]",0.0156 µg/mL
3,"CCN(C)/C=N/c1cc(C)c(Cc2nc(C(=O)NC(C)(C)CC)cs2)cc1C [Example 86, 2-[4-({(E)-[Ethyl(methyl)amino]methylidene}amino)-2,5-dimethylbenzyl]-N-(2-methylbutan-2-yl)-1,3-thiazole-4-carboxamide]",0.0039 µg/mL
4,"CCN(C)/C=N/c1cc(C)c(Cc2nc(-c3ccc4c(c3)CNC4=O)cs2)cc1C [Example 89, N′-(2,5-Dimethyl-4-{[4-(1-oxo-2,3-dihydro-1H-isoindol-5-yl)-1,3-thiazol-2-yl]methyl}phenyl)-N-ethyl-N-methylimidoformamide]",0.0625 µg/mL
5,"CCN(C)/C=N/c1cc(C)c(Cc2nc(C3CCOCC3)cs2)cc1C [Example 81, N′-(2,5-Dimethyl-4-{[4-(tetrahydro-2H-pyran-4-yl)-1,3-thiazol-2-yl]methyl}phenyl)-N-ethyl-N-methylimidoformamide]",0.0156 µg/mL
6,"CCN(C)/C=N/c1cc(C)c(Cc2nc(C3CCC(C(=O)NC)CC3)cs2)cc1C (centres unmarked) [Example 87, 4-{2-[4-({(E)-[Ethyl(methyl)amino]methylidene}amino)-2,5-dimethylbenzyl]-1,3-thiazol-4-yl}-N-methylcyclohexanecarboxamide]",0.0156 µg/mL
7,"CCN(C)/C=N/c1cc(C)c(Cc2nc(-c3ccc(S(C)(=O)=O)cc3)cs2)cc1C [Example 23, N′-[2,5-Dimethyl-4-{4-[4-(methylsulfonyl)phenyl]-1,3-thiazol-2-yl}methyl)phenyl]-N-ethyl-N-methylimidoformamide dihydrochloride]",0.0039 µg/mL
8,"CCN(C)/C=N/c1cc(C)c(Cc2nc(-c3ccc(C(=O)N4CCC4)cc3)cs2)cc1C [Example 101, N′-[4-({4-[4-(Azetidin-1-ylcarbonyl)phenyl]-1,3-thiazol-2-yl}methyl)-2,5-dimethylphenyl]-N-ethyl-N-methylimidoformamide]",0.0625 µg/mL
9,"CN/C=N/c1cc(C)c(Cc2nc(-c3ccc(C(=O)NC)cc3)cs2)cc1C [Example 95, 4-[2-(2,5-Dimethyl-4-{[(E)-(methylamino)methylidene]amino}benzyl)-1,3-thiazol-4-yl]-N-methylbenzamide]",0.125 µg/mL
10,"CCN(C)/C=N/c1cc(C)c(Cc2nc(-c3ccc(C(=O)NC(C)C)cc3)cs2)cc1C [Example 98, 4-{2-[4-({(E)-[Ethyl(methyl)amino]methylidene}amino)-2,5-dimethylbenzyl]-1,3-thiazol-4-yl}-N-(propan-2-yl)benzamide]",0.0156 µg/mL
11,"CCN(C)/C=N/c1cc(C)c(Cc2nc(-c3ccc(C(=O)NC)cc3)cs2)cc1C [Example 41, 4-{2-[4-({(E)-[Ethyl(methyl)amino]methylidene}amino)-2,5-dimethylbenzyl]-1,3-thiazol-4-yl}-N-methylbenzamide]",0.0078 µg/mL
12,"CCN(C)/C=N/c1cc(C)c(Cc2nc(C(O)c3ccc(Cl)cc3)cs2)cc1C (centres unmarked) [Example 38, N′-[4-({4-[(4-Chlorophenyl)(hydroxy)methyl]-1,3-thiazol-2-yl}methyl)-2,5-dimethylphenyl]-N-ethyl-N-methylimidoformamide]",0.0078 µg/mL

# Same assay, conditions: NBRC5467, 96 h, pH 7, read-out: MIC (μg/mL) T. rubrum NBRC5467
row,Compound,MIC
1,"CCN(C)/C=N/c1cc(C)c(Cc2nc(-c3ccc(C)cc3)cs2)nc1C [Example 47, N′-(2,5-Dimethyl-6-{[4-(4-methylphenyl)-1,3-thiazol-2-yl]methyl}pyridin-3-yl)-N-ethyl-N-methylimidoformamide dihydrochloride]",0.0313 µg/mL
2,"CCN(C)/C=N/c1cc(C)c(Cc2nc(-c3cncc(F)c3)cs2)cc1C [Example 21, N-Ethyl-N′-(4-{[4-(5-fluoropyridin-3-yl)-1,3-thiazol-2-yl]methyl}-2,5-dimethylphenyl)-N-methylimidoformamide trihydrochloride]",0.0156 µg/mL
3,"CCN(C)/C=N/c1cc(C)c(Cc2nc(C3CC3)cs2)cc1C [Example 45, N′-{4-[(4-Cyclopropyl-1,3-thiazol-2-yl)methyl]-2,5-dimethylphenyl}-N-ethyl-N-methylimidoformamide dihydrochloride]",0.0313 µg/mL
4,"CCN(C)/C=N/c1cc(C)c(Cc2nc(C(=O)NCc3ccccc3)cs2)cc1C [Example 44, N-Benzyl-2-[4-({(E)-[ethyl(methyl)amino]methylidene}amino)-2,5-dimethylbenzyl]-1,3-thiazole-4-carboxamide dihydrochloride]",0.0625 µg/mL
5,"CCN(C)/C=N/c1cc(C)c(Cc2nc(C(=O)NC3CCC(F)(F)CC3)cs2)cc1C [Example 96, N-(4,4-Difluorocyclohexyl)-2-[4-({(E)-[ethyl(methyl)amino]methylidene}amino)-2,5-dimethylbenzyl]-1,3-thiazole-4-carboxamide hydrochloride]",0.0313 µg/mL
6,"CCOC(=O)Nc1csc(Cc2cc(C)c(/N=C/N(C)CC)cc2C)n1 [Example 31, Ethyl {2-[4-({(E)-[ethyl(methyl)amino]methylidene}amino)-2,5-dimethylbenzyl]-1,3-thiazol-4-yl}carbamate dihydrochloride]",0.0078 µg/mL
7,"CCN(C)/C=N/c1cc(C)c(Cc2nc(-c3ccn(C)c(=O)c3)cs2)cc1C [Example 67, N′-(2,5-Dimethyl-4-{[4-(1-methyl-2-oxo-1,2-dihydropyridin-4-yl)-1,3-thiazol-2-yl]methyl}phenyl)-N-ethyl-N-methylimidoformamide dihydrochloride]",0.0625 µg/mL
8,"CCN(C)/C=N/c1cc(C)c(Cc2nc(C(=O)c3ccccc3)cs2)cc1C [Example 19, N′-(2,5-Dimethyl-4-{[4-(phenylcarbonyl)-1,3-thiazol-2-yl]methyl}phenyl)-N-ethyl-N-methylimidoformamide dihydrochloride]",0.0156 µg/mL
9,"CCN(C)/C=N/c1cc(C)c(Cc2nc(C(=O)NC(C)(C)C(F)(F)F)cs2)cc1C [Example 109, 2-[4-({(E)-[Ethyl(methyl)amino]methylidene}amino)-2,5-dimethylbenzyl]-N-(1,1,1-trifluoro-2-methylpropan-2-yl)-1,3-thiazole-4-carboxamide hydrochloride]",0.0039 µg/mL
10,"CCN(C)/C=N/c1cc(C)c(Cc2nc(COC(C)=O)cs2)cc1C [Example 34, {2-[4-({(E)-[Ethyl(methyl)amino]methylidene}amino)-2,5-dimethylbenzyl]-1,3-thiazol-4-yl}methyl acetate dihydrochloride]",0.0313 µg/mL
11,"CCOC(=O)c1csc(Cc2cc(C)c(/N=C/N(C)CC)cc2C)n1 [Example 35, Ethyl 2-[4-({(E)-[ethyl(methyl)amino]methylidene}amino)-2,5-dimethylbenzyl]-1,3-thiazole-4-carboxylate]",0.0313 µg/mL
12,"CCN(C)/C=N/c1cc(C)c(Cc2nc(NC(=O)OC3CCCCC3)cs2)cc1C [Example 97, Cyclohexyl {2-[4-({(E)-[ethyl(methyl)amino]methylidene}amino)-2,5-dimethylbenzyl]-1,3-thiazol-4-yl}carbamate hydrochloride]",0.0078 µg/mL
13,"CCN(C)/C=N/c1cc(C)c(Cc2nc(COC(C)C)cs2)cc1C [Example 63, N′-[2,5-Dimethyl-4-({4-[(propan-2-yloxy)methyl]-1,3-thiazol-2-yl}methyl)phenyl]-N-ethyl-N-methylimidoformamide dihydrochloride]",0.0156 µg/mL
14,"CCN(C)/C=N/c1cc(C)c(Cc2nc(-c3cnc(C)cn3)cs2)cc1C [Example 37, N′-(2,5-Dimethyl-4-{[4-(5-methylpyrazin-2-yl)-1,3-thiazol-2-yl]methyl}phenyl)-N-ethyl-N-methylimidoformamide dihydrochloride]",0.0039 µg/mL
15,"CCN(C)/C=N/c1ccc(Cc2nc(-c3ccc(Cl)cc3)cs2)cc1 [Example 51, N′-(4-{[4-(4-Chlorophenyl)-1,3-thiazol-2-yl]methyl}phenyl)-N-ethyl-N-methylimidoformamide hydrochloride]",0.25 µg/mL
16,"CCN/C=N/c1cc(C)c(Cc2nc(-c3cnc(C)cn3)cs2)cc1C [Example 105, N′-(2,5-Dimethyl-4-{[4-(5-methylpyrazin-2-yl)-1,3-thiazol-2-yl]methyl}phenyl)-N-ethylimidoformamide hydrochloride]",0.0313 µg/mL
17,"CCN(C)/C=N/c1cc(C)c(Cc2nc(-c3ccccc3)c(C(=O)c3ccccc3)s2)cc1C [Example 25, N′-(2,5-Dimethyl-4-{[4-phenyl-5-(phenylcarbonyl)-1,3-thiazol-2-yl]methyl}phenyl)-N-ethyl-N-methylimidoformamide dihydrochloride]",0.0313 µg/mL
